In brackets after ≈: the same amount, converted by molar mass.
Key:
Type in all cases: functional
Staphylococcus aureus [1] = assay: Antimicrobial activity against methicillin-resistant Staphylococcus aureus Chaoyang clinical isolate after 16 hrs by broth microdilution method
Staphylococcus aureus [2] = assay: Antimicrobial activity against Staphylococcus aureus ATCC 6538 after 16 hrs by broth microdilution method; conditions: ATCC 6538, 16 h
Bacillus spizizenii = assay: Antimicrobial activity against Bacillus subtilis ATCC 6633 after 16 hrs by broth microdilution method; conditions: ATCC 6633, 16 h
Staphylococcus aureus [3] = assay: Antimicrobial activity against methicillin-resistant Staphylococcus aureus 8-24 clinical isolate after 16 hrs by broth microdilution method; conditions: 8-24, 16 h
Pseudomonas aeruginosa = assay: Antimicrobial activity against Pseudomonas aeruginosa PAO1 after 16 hrs by broth microdilution method; conditions: PAO1, 16 h
Staphylococcus aureus [4] = assay: Antimicrobial activity against methicillin-resistant Staphylococcus aureus 309-7 clinical isolate after 16 hrs by broth microdilution method; conditions: 309-7, 16 h
Staphylococcus aureus [5] = assay: Antimicrobial activity against methicillin-resistant Staphylococcus aureus 309-6 clinical isolate after 16 hrs by broth microdilution method; conditions: 309-6, 16 h
Staphylococcus aureus [6] = assay: Antimicrobial activity against methicillin-resistant Staphylococcus aureus 309-8 clinical isolate after 16 hrs by broth microdilution method; conditions: 309-8, 16 h
Staphylococcus aureus [7] = assay: Antimicrobial activity against methicillin-resistant Staphylococcus aureus 309-1 clinical isolate after 16 hrs by broth microdilution method; conditions: 309-1, 16 h
Staphylococcus aureus [8] = assay: Antimicrobial activity against methicillin-resistant Staphylococcus aureus 309-4 clinical isolate after 16 hrs by broth microdilution method; conditions: 309-4, 16 h
Staphylococcus aureus [9] = assay: Antimicrobial activity against methicillin-resistant Staphylococcus aureus 6-42 clinical isolate after 16 hrs by broth microdilution method; conditions: 6-42, 16 h
Enterococcus faecalis [10] = assay: Antimicrobial activity against Enterococcus faecalis VRE-309 after 16 hrs by broth microdilution method; conditions: VRE-309, 16 h
Staphylococcus aureus [11] = assay: Antimicrobial activity against methicillin-resistant Staphylococcus aureus 309-3 clinical isolate after 16 hrs by broth microdilution method; conditions: 309-3, 16 h
Staphylococcus aureus [12] = assay: Antimicrobial activity against methicillin-resistant Staphylococcus aureus 6281 clinical isolate after 16 hrs by broth microdilution method; conditions: Staphylococcus aureus, 6281, 16 h
Staphylococcus aureus [13] = assay: Antimicrobial activity against methicillin-resistant Staphylococcus aureus 8-21 clinical isolate after 16 hrs by broth microdilution method; conditions: 8-21, 16 h
Klebsiella pneumoniae = assay: Antimicrobial activity against Klebsiella pneumoniae KP-249 clinical isolate after 16 hrs by broth microdilution method; conditions: KP-249, 16 h
Enterococcus faecalis [14] = assay: Antimicrobial activity against vancomycin-susceptible Enterococcus faecalis after 16 hrs by broth microdilution method

Row | Compound | MIC (Staphylococcus aureus [1]) [µg/mL] | MIC (Staphylococcus aureus [2]) [µg/mL] | MIC (Bacillus spizizenii) [µg/mL] | MIC (Staphylococcus aureus [3]) [µg/mL] | MIC (Pseudomonas aeruginosa) [µg/mL] | MIC (Staphylococcus aureus [4]) [µg/mL] | MIC (Staphylococcus aureus [5]) [µg/mL] | MIC (Staphylococcus aureus [6]) [µg/mL] | MIC (Staphylococcus aureus [7]) [µg/mL] | MIC (Staphylococcus aureus [8]) [µg/mL] | MIC (Staphylococcus aureus [9]) [µg/mL] | MIC (Enterococcus faecalis [10]) [µg/mL] | MIC (Staphylococcus aureus [11]) [µg/mL] | MIC (Staphylococcus aureus [12]) [µg/mL] | MIC (Staphylococcus aureus [13]) [µg/mL] | MIC (Klebsiella pneumoniae) [µg/mL] | MIC (Enterococcus faecalis [14]) [µg/mL]
1 | O=C1Nc2ccccc2/C1=N/NC(=S)Nc1ccccc1 | 3.12 (≈ 10.5 µM) | 3.12 (≈ 10.5 µM) | 1.56 (≈ 5.26 µM) |  |  |  |  |  |  |  |  |  |  |  |  |  | 
2 | O=C1Nc2ccccc2/C1=N/NC(=S)Nc1ccc(F)cc1 | 3.12 (≈ 9.93 µM) | 6.25 (≈ 19.9 µM) | 1.56 (≈ 4.96 µM) |  |  |  |  |  |  |  |  |  |  |  |  |  | 
3 | O=C1Nc2ccc(Br)cc2/C1=N/NC(=S)Nc1ccccc1 | 6.25 (≈ 16.7 µM) | 6.25 (≈ 16.7 µM) | ≤ 0.78 |  |  |  |  |  |  |  |  |  |  |  |  |  | 
4 | O=C1Nc2ccc([N+](=O)[O-])cc2/C1=N/NC(=S)Nc1ccc(F)cc1 | 12.5 (≈ 34.8 µM) | 6.25 (≈ 17.4 µM) | 25 (≈ 69.6 µM) |  |  |  |  |  |  |  |  |  |  |  |  |  | 
5 | O=C1Nc2ccc(F)cc2/C1=N/NC(=S)Nc1ccc(F)cc1 | 25 (≈ 75.2 µM) | 25 (≈ 75.2 µM) | 25 (≈ 75.2 µM) |  |  |  |  |  |  |  |  |  |  |  |  |  | 
6 | O=C1Nc2c(F)cccc2/C1=N/NC(=S)Nc1ccccc1 | 1.56 (≈ 4.96 µM) | 3.12 (≈ 9.93 µM) | ≤ 0.78 |  |  |  |  |  |  |  |  |  |  |  |  |  | 
7 | O=C1Nc2ccc(Cl)cc2/C1=N/NC(=S)Nc1ccc(F)cc1 | 3.12 (≈ 8.95 µM) | 12.5 (≈ 35.8 µM) | 6.25 (≈ 17.9 µM) |  |  |  |  |  |  |  |  |  |  |  |  |  | 
8 | O=C1Nc2c(Br)cc([N+](=O)[O-])cc2/C1=N/NC(=S)Nc1ccc(F)cc1 | 3.12 (≈ 7.12 µM) | 1.56 (≈ 3.56 µM) | ≤ 0.78 |  |  |  |  |  |  |  |  |  |  |  |  |  | 
9 | O=C1Nc2c(Br)cc(Br)cc2/C1=N/NC(=S)Nc1ccc(F)cc1 | 6.25 (≈ 13.2 µM) | 12.5 (≈ 26.5 µM) | 1.56 (≈ 3.3 µM) |  |  |  |  |  |  |  |  |  |  |  |  |  | 
10 | O=C1Nc2c(F)cccc2/C1=N/NC(=S)Nc1cccc(F)c1 | 0.39 (≈ 1.17 µM) | 0.78 (≈ 2.35 µM) | ≤ 0.78 | 0.78 (≈ 2.35 µM) | > 100 | 0.39 (≈ 1.17 µM) | 1.56 (≈ 4.69 µM) | 0.78 (≈ 2.35 µM) | 0.78 (≈ 2.35 µM) | 0.39 (≈ 1.17 µM) | 0.39 (≈ 1.17 µM) | 1.56 (≈ 4.69 µM) | 0.78 (≈ 2.35 µM) | 1.56 (≈ 4.69 µM) | 0.78 (≈ 2.35 µM) | > 100 | 
11 | O=C1Nc2c(I)cccc2/C1=N/NC(=S)Nc1ccccc1F | 0.78 (≈ 1.77 µM) | 3.12 (≈ 7.09 µM) | ≤ 0.78 | 1.56 (≈ 3.54 µM) | > 100 | 0.78 (≈ 1.77 µM) | 3.12 (≈ 7.09 µM) | 1.56 (≈ 3.54 µM) | 1.56 (≈ 3.54 µM) | 1.56 (≈ 3.54 µM) | 0.78 (≈ 1.77 µM) | 6.25 (≈ 14.2 µM) | 3.12 (≈ 7.09 µM) | 6.25 (≈ 14.2 µM) | 1.56 (≈ 3.54 µM) | > 100 | 12.5 (≈ 28.4 µM)
12 | COc1ccccc1NC(=S)N/N=C1\C(=O)Nc2c(I)cccc21 | 6.25 (≈ 13.8 µM) | > 100 | 1.56 (≈ 3.45 µM) | 12.5 (≈ 27.6 µM) | > 100 | 6.25 (≈ 13.8 µM) | 25 (≈ 55.3 µM) | 12.5 (≈ 27.6 µM) | 12.5 (≈ 27.6 µM) | 12.5 (≈ 27.6 µM) | 6.25 (≈ 13.8 µM) | > 100 | 25 (≈ 55.3 µM) | 25 (≈ 55.3 µM) | 12.5 (≈ 27.6 µM) | > 100 | > 100
13 | Cc1ccccc1NC(=S)N/N=C1\C(=O)Nc2c(I)cccc21 | 0.78 (≈ 1.79 µM) | 3.12 (≈ 7.15 µM) | ≤ 0.78 | 3.12 (≈ 7.15 µM) | > 100 | 1.56 (≈ 3.58 µM) | 6.25 (≈ 14.3 µM) | 3.12 (≈ 7.15 µM) | 3.12 (≈ 7.15 µM) | 1.56 (≈ 3.58 µM) | 0.78 (≈ 1.79 µM) | 6.25 (≈ 14.3 µM) | 3.12 (≈ 7.15 µM) | 6.25 (≈ 14.3 µM) | 1.56 (≈ 3.58 µM) | > 100 | 12.5 (≈ 28.7 µM)

From ChEMBL document CHEMBL3611970, “Synthesis and evaluation of isatin-β-thiosemicarbazones as novel agents against antibiotic-resistant Gram-positive bacterial species” (2015)
